“And” between values parts separate entries of the source, which are not always exact repeats. Equal entries are not always repeated.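 Method: 48-hour compound exposure of cells in 96-well plates, five concentrations, linear interpolation of endpoints. GI50 is the concentration that inhibits growth by half. TGI denotes the concentration required for complete inhibition of growth.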
What was measured:
Assay in all cases: DTP human tumour cell line panel, 48 h
[1] = system: 786-0 renal
[2] = system: A549 NSCLC
[3] = system: COLO 205 colon
[4] = system: EKVX NSCLC
[5] = system: HCT-116 colon
[6] = system: MALME-3M melanoma
[7] = system: NCI-H522 lung
[8] = system: OVCAR-4 ovarian
[9] = system: SF-295 CNS
[10] = system: SK-OV-3 ovarian
[11] = system: SR leukemia
[12] = system: DLD-1 colon
[13] = system: DMS 114 small cell lung
[14] = system: DMS 273 small cell lung
[15] = system: KM20L2 colon
[16] = system: LXFL 529 NSCLC
[17] = system: M19-MEL melanoma

| SMILES | TGI [1] [µM] | TGI [2] [µM] | TGI [3] [µM] | TGI [4] [µM] | TGI [5] [µM] | TGI [6] [µM] | TGI [7] [µM] | TGI [8] [µM] | TGI [9] [µM] | TGI [10] [µM] | TGI [11] [µM] | TGI [12] [µM] | TGI [13] [µM] | TGI [14] [µM] | TGI [15] [µM] | TGI [16] [µM] | TGI [17] [µM] | GI50 [7] | GI50 [8] |
| --- | --- | --- | --- | --- | --- | --- | --- | --- | --- | --- | --- | --- | --- | --- | --- | --- | --- | --- | --- |
| Cn1c(N/N=C/c2ccccc2)nc(-c2ccc3c(c2)OCO3)c(C#N)c1=O | > 100 | > 100 | > 100 | > 100 | > 100 | > 100 | > 100 | > 100 | > 100 | > 100 | > 100 | – | – | – | – | – | – | – | – |
| Cc1cccc2c(N)c3cccc(C(=O)NCC[N+](C)(C)Cc4ccc([N+](=O)[O-])n4C)c3nc12 | > 63.9 | > 52.2 | 66.7 | > 100 | 68.3 | 41.3 | 35.8 | > 74.7 | > 89.3 | > 78 | 36.6 | – | – | – | – | – | – | – | – |
| COc1ccccc1-n1cnc2c1NC(C)(C)N=C2C(N)=O | > 100 | > 100 | > 100 | > 100 | > 100 | > 100 | > 100 | > 100 | > 100 | > 100 | > 100 | – | – | – | – | – | – | – | – |
| O=Cc1c2c(cc3c1CC1(C3)Cc3cc4c(c(C=O)c3C1)CCCC4)CCCC2 | > 31.6 | > 31.6 | > 31.6 | > 31.6 | > 31.6 | > 31.6 | 27.3 | > 31.6 | > 31.6 | > 31.6 | 22.2 | – | – | – | – | – | – | – | – |
| c1ccc(CN2CCC(=NN3CCCCC3)CC2)cc1 | > 100 | > 100 | 99.5 | > 100 | > 100 | > 100 | > 100 | > 100 | > 100 | > 100 | > 100 | – | – | – | – | – | – | – | – |
| CCCNC1=C2C[C@@H](C)C[C@@H](OC)[C@@H](OC(=O)CCCN)[C@H](C)/C=C(\C)[C@@H](OC(N)=O)[C@H](OC)/C=C\C=C(/C)C(=O)NC(=CC1=O)C2=O | 53.9 | 40.6 | 12.1 | 37.5 | 28.3 | 28.4 | 19.1 | 39.4 | 36.8 | 32.4 | > 23.8 | – | – | – | – | – | – | – | – |
| O=C(O)c1cc(N=Nc2ccc([N+](=O)[O-])cc2)ccc1O | > 100 | > 100 | > 100 | > 100 | > 100 | > 100 | > 100 | 80.4 | 83.7 | > 100 | > 100 | – | – | – | – | – | – | – | – |
| O=C(Nc1ccccc1[N+](=O)[O-])/C(=N/Nc1cccc(Cl)c1)c1c(O)c2ccccc2oc1=O | > 100 | > 100 | 47.6 | > 100 | 53.6 | > 100 | > 100 | > 100 | > 100 | > 100 | 2.67 | > 100 | 53.8 | > 100 | > 100 | > 100 | > 100 | – | – |
| COc1ccc(/C=C2/N=C(N/N=C\C(O)C(O)C(O)CO)NC2=O)cc1 (configuration not stated) | > 100 | > 100 | > 100 | > 100 | > 100 | > 100 | > 100 | > 100 | > 100 | > 100 | > 100 | – | – | – | – | – | – | > 100 µM and 34.2 µM | 40.9 µM and > 100 µM |

From PubChem BioAssay (NCI)
